From patent US6300364A, “Medicinal compositions with cholesterol-lowering effect” (priority 1997, dated 2001)
Like-named read-outs stand apart in the source and are kept apart here.

Legend:
PPARα [1] = target: T1, PPARα (Mus musculus, UniProt P23204); assay: GAL4-PPARα reporter (luciferase) activation assay in HepG2 cells; type: cell-based; conditions: read-out: Relative activity (control = 1) PPARα
T1 construct: mPPARα (Gly^165 -Tyr^467); expressed in transfected cells; host or cells: HepG2
T1 sequence (P23204 165-468 limits assumed): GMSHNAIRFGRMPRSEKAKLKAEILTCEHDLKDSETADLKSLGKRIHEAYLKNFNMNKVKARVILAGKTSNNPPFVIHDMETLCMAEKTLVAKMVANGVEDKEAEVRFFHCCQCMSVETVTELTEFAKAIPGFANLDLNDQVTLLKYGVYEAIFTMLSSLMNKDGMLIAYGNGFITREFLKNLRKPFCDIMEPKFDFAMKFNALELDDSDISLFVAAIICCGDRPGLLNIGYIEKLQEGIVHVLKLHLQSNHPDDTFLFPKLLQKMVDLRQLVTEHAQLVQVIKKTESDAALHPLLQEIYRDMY

PPARδ [2] = target: T2, PPARδ (Mus musculus, UniProt P35396); assay: GAL4-PPARδ reporter (luciferase) activation assay in HepG2 cells; type: cell-based; conditions: for fold induction at 100 µM: read-out: Relative activity (control = 1) PPARδ; for PPARδ-activating effect (in words): conclusion from Table 1
T2 construct: mPPARδ (Met^137 -Tyr^439); expressed in transfected cells; host or cells: HepG2
T2 sequence (P35396 137-440 limits assumed): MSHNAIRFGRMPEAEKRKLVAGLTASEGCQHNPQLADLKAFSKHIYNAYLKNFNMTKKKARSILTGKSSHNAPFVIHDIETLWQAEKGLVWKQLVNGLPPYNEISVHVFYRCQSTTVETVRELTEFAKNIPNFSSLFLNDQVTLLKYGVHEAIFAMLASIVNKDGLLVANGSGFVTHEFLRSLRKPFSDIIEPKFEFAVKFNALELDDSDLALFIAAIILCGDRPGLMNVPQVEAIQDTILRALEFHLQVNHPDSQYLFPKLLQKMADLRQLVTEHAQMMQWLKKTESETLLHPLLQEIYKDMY

PPARγ = target: T3, PPARγ (Mus musculus, UniProt P37238); assay: GAL4-PPARγ reporter (luciferase) activation assay in HepG2 cells; conditions: for fold induction at 100 µM: HepG2, 48 h, read-out: Relative activity (control = 1) PPARγ; for PPARγ-activating effect (in words): conclusion from Table 1
T3 sequence (P37238 202-505): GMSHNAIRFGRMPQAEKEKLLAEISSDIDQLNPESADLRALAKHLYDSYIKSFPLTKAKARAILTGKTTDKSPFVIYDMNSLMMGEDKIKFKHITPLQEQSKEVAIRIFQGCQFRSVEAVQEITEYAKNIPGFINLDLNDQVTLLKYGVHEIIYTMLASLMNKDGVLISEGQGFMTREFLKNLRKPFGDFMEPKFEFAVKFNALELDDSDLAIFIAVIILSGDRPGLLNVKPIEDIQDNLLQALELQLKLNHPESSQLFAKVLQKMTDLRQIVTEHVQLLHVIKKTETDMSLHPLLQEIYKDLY
Source text: To identify a compound having a PPARδ and PPARγ ligand effect, fused gene expression vectors of the DNA-binding domain (GAL4-DNA bindgn domain, GAL4-DBD) of a yeast transcription activated protein and the PPAR ligand binding domains (LBDs) were constructed. Three activation vectors thus constructed were named GAL-PPARα, GAL-PPARδ and GAL-PPARγ respectively.
i) Ligand binding domains (PPAR-LBDs) of mouse peroxisome-proliferator-activated receptors (mPPARα, mPPARδ and mPPARγ) were each amplified by PCR (polymerase chain reaction). As a template employed in the amplification, total RNA was prepared from a fat tissue around mouse epididymis with the use of a total RNA extracting reagent Isogen (manufactured by Nippon Gene) in accordance with the attached manufacturer's instruction. […] PCR was performed by using GeneAmp PCR System Model 9600.
ii) Into one side of each primer thus synthesized, a recognition sequence of a restriction enzyme SmaI or BamHI had been preliminarily inserted so that the primer could be cleaved with the restriction enzyme. After the amplification, the PCR fragment was ligated with pGBT9 DNA-Binding Domain Vector (5.5 kb, having the GAL4-DBD domain and an ampicillin resistance gene Amp^R sequence, manufactured by Clontech) and the vector thus formed was named pGBT9-PPAR-LBD.
iii) A fused gene domain (GAL4-DBD+PPAR-LBD) wherein GAL4-DBD contained in pGBT9-PPAR-LBD was legated to PPARLBD was excised by using HindIII/SalI and transferred into the multiple cloning site (MCS) of an expression vector pZeoSV (3.5 kb, having zeocin resistance gene Zeo^R sequence, manufactured by Clontech) by using HindIII/Xhol. The thus obtained chimeric expression vectors of GAL4-DBD ad PPAR-LBD were named respectively GAL-PPARα, GAL-PPARδ and GAL-PPARγ.
i) DNA sequences were synthesized by using a DNA synthesizer (Beckman DNA Synthesizer oligo1000M, manufactured by Beckman) by repeating the GAL4-DBD binding sequence (GAL4 responsive element, RE or UASG) once (RE×1) or thrice (RE×3). Then appropriate restriction enzyme cites were introduced into both ends and these sequences were ligated together to give a 4-repetition sequence fragment (RE×4). Further, an 8-repetition sequence fragment (RE×8) was formed by using the same.
ii) A DNA sequence wherein TATA box was ligated to the above GAL4 responsive sequence (RE×8) was formed by PCR and then inserted into the 5'-side upstream of the luciferase gene sequence (RE-LUC) in a vector for luciferae assay system (Pica Gene Vector-2, (PGV-B2), Toyo Ink Mfg.). […] RE-LUC containing RE×8 was transferred into cells together with GAL-PPARγ. Then CS-045 (troglitazone), i.e., the ligand of PPARγ was added.
By using the activation vectors and reporter vectors constructed in the above (1) and (2), the PPAR activation effect of a compound was measured by a method involving the following three steps: i) Cotransfection of construction into a host; ii) treatment of cells by adding the compound; and iii) assay of the reporter gene expression level.
HepG2 cells (American Type Culture Collection, Maryland, USA) was inoculated into a collagen type IV treated 96-well plate (manufactured by Iwaki) at a cell density of 1×10^4 /well and incubated for 2 days in the presence of Dulbecco's modified Eagle medium containing 10% of fetal calf serum (FCS) (200 μl/well, FCS-DMEM (GIBCO BRL)). Next, the cells were washed with 100 μl/well of a cell incubation medium (OPTI-MEM I Reduced Serum Medium, manufactured by GIBCO BRL) maintained at 37° C.

PPARα [3] = conditions: literature report; cited from earlier work
PPARδ [4] = conditions: literature report; cited from earlier work
[5] = Test for evaluating cholesterol-lowering effect by using rhesus monkey; type: in vivo; conditions: for Decrease in LDL-C (LDL-cholesterol level) / Decrease in TC (serum total cholesterol level): male rhesus monkeys, 30 mg/kg/day in feed, 2 weeks, compared with data before the administration; for Effect of lowering serum total cholesterol level, in particular LDL-cholesterol level (in words): rhesus monkeys, conclusion from Table 2
Procedure: A test for evaluating cholesterol-lowering effect was performed by using rhesus monkeys in accordance with a method described in Br. J. Pharmacol., 118, p.174-178, 1996.
i) Male rhesus monkeys weighing about 4.5 to 5 kg (Purchased from Hamri) were fed by giving twice a day 50 g/day of a solid feed, which had been prepared by adding 50 ml of water and vitamin C (5 mg/kg/day, manufactured by Sigma) to 50 g of Purina powdery feed (Code #5408, manufactured by Oriental Yeast) and solidifying the mixture, and about 100 g of banana.
ii) The monkeys having been accustomed to the control feed were divided into a control group having 4 animals and test groups each having 3 animals. The animals of the […] were fed with the control feed. On the other hand, the animals of one test group were fed with a composition feed containing 30 mg/kg/day of YM-16683, while those of the other test group were fed with a composition feed containing 30 mg/kg/day of the compound of Production Example 1, each twice a day. To avoid unfinished feeding, banana was given to the animals after taking 50 g of each feed.
iii) The groups were fed with respective feeds for 2 weeks. About 16 hours before the day before the final administration, the animals were fasted and the blood samples were collected from thigh. After measuring body weight, blood collection was performed twice, i.e., before and after the administration of the test compound. Each blood sample thus collected was heparinized and serum was separated therefrom. Next, the total cholesterol level (TC) and LDL-cholesterol level (LDL-C) were measured by the enzymatic method with the use of an automatic analyzer (Model 736-10, Hitachi) (Table 2).
Decrease was calculated by comparing the data before the administration.

[6] = cited from earlier work; for Decrease in serum cholesterol level: normal subjects
[7] = cited from earlier work
[8] = test compound 10^-4 M, HepG2 cells, 48 hours, luciferase activity corrected by β-galactosidase, DMSO control = 1.0

Compound: CCOC(=O)C(C)(C)Oc1ccc(Cl)cc1 [Clofibrate]
- fold induction at 100 µM (PPARα [1]; HepG2, 48 h): 2.2
- fold induction at 100 µM (PPARδ [2]; HepG2, 48 h): 1.3
- fold induction at 100 µM (PPARγ): 0.9

Compound: CCCCC[C@H](O)/C=C/[C@@H]1[C@H]2C/C(=C/CCCC(=O)O)O[C@H]2C[C@H]1O [PGI2, prostacyclin]
- PPARα activation / ligand activity (in words) (PPARα [3]): activates neither PPARα nor PPARδ
- PPARδ activation / ligand activity (in words) (PPARδ [4]): activates neither PPARα nor PPARδ

Compound: CCc1ccc(CCOc2ccc(CC3SC(=O)NC3=O)cc2)nc1 (centres unmarked) [Pioglitazone]
- fold induction at 100 µM (PPARα [1]; HepG2, 48 h): 1.5
- fold induction at 100 µM (PPARδ [2]; HepG2, 48 h): 1.4

Compound: CCCc1c(OCCCOc2ccc(CC(=O)O)cc2)ccc(C(C)=O)c1O [Production Example 1, p-[3-(4-acetyl-3-hydroxy-2-propylphenoxy)propoxy]phenylacetic acid]
- fold induction at 100 µM (PPARα [1]; [8]): 0.6
- Decrease in LDL-C (LDL-cholesterol level) [5]: 34%
- Decrease in TC (serum total cholesterol level) [5]: 29%
- Effect of lowering serum total cholesterol level, in particular LDL-cholesterol level (in words) [5]: excellent effect of lowering serum total cholesterol level, in particular, LDL-cholesterol level
- PPARδ-activating effect (in words) (PPARδ [2]): effect of activating PPARδ and PPARγ
- fold induction at 100 µM (PPARδ [2]; [8]): 83.5
- fold induction at 100 µM (PPARγ): 10.3
- PPARγ-activating effect (in words) (PPARγ): effect of activating PPARδ and PPARγ

Compound: Cc1cccc(Nc2cc(Cl)nc(SCC(=O)O)n2)c1C [Wy 14,643, prinixic acid]
- PPARα activation / ligand activity (in words) (PPARα [3]): ligand specific to PPARα
- fold induction at 100 µM (PPARγ): 1.8

Compound: CCCc1c(OCCCSc2nnc(SCC(=O)O)s2)ccc(C(C)=O)c1O [YM-16638]
- Effect of lowering serum triglyceride level (in words) ([6]; humans): only a weak effect
- Decrease in serum cholesterol level ([6]; administration dose 60 mg): about 26%
- Decrease in serum cholesterol level ([6]; administration dose 120 mg): ~41%
- fold induction at 100 µM (PPARα [1]; [8]): 1
- Decrease in LDL-C (LDL-cholesterol level) [5]: 14%
- Decrease in TC (serum total cholesterol level) [5]: 33%
- Effect of lowering serum total cholesterol level, in particular LDL-cholesterol level (in words) [5]: excellent effect of lowering serum total cholesterol level, in particular, LDL-cholesterol level
- PPARδ-activating effect (in words) (PPARδ [2]): effect of activating PPARδ and PPARγ
- fold induction at 100 µM (PPARδ [2]; [8]): 46.2
- fold induction at 100 µM (PPARγ): 2.5
- PPARγ-activating effect (in words) (PPARγ): effect of activating PPARδ and PPARγ

Compound: CCCCC[C@H](O)/C=C/[C@@H]1[C@H]2C/C(=C/CCCC(=O)O)C[C@H]2C[C@H]1O [cPGI2, carbaprostacyclin]
- fold induction at 100 µM (PPARα [1]; HepG2, 48 h): 15.2
- PPARα activation / ligand activity (in words) (PPARα [3]): has activities of both of PPARα and PPARδ ligands
- PPARδ activation / ligand activity (in words) (PPARδ [4]): has activities of both of PPARα and PPARδ ligands
- fold induction at 100 µM (PPARδ [2]; HepG2, 48 h): 34
- fold induction at 100 µM (PPARγ): 1.6

Compound: CCC(C)(C)C(=O)O[C@H]1C[C@@H](C)C=C2C=C[C@H](C)[C@H](CC[C@@H]3C[C@@H](O)CC(=O)O3)[C@H]21 [simvastatin]
- Decrease in serum cholesterol level ([7]; patient with hyperlipemia, total serum cholesterol level of 220 mg/dl or above): about 20%
- Decrease in serum cholesterol level ([7]; phase I clinical test, normal subjects, about 1 week after the initiation of the administration): about 20%
